US20040014814A1, “Compositions and methods for delaying preventing rejuvenating or reversing senescence in cells” (priority 2000, published 2004)

Assays:
MRC-5 cells [1] = test: Effect of carnosine derivatives on cell growth / toxicity in MRC-5 cell cultures; format: cell-based, human; set-up: key to Effect on cell growth (score): (0) Toxic to cell growth; (10) Confluent cell growth; details: MRC-5 cells, scale 0 toxic to 10 confluent
Description: (§1) MRC -5 cells (fetal lung fibroblasts) were grown in Dulbecco's modification of Eagles' minimum essential medium (DMEM Gibco BRL Cat. No. 12800-017) containing 0.45% glucose, or MEM (Gibco BRL Cat. No. 612800-017) containing 0.1% glucose. Both media contained 10% fetal calf scrum (TRACE Biosciences Cat. No. 15-010-0500V) and Penicillin/Streptomycin 5000 IU, 5000 μg/ml (TRACE Biosciences Cat. No. 21-140-0100V). Cells were grown in […] flasks or in dishes (35 mm or 60 mm, Nunc) at 37° C. with 5% CO2. Cells were harvested with trypsin (TRACE Biosciences Cat. No. 21-163-0100V) and counted with a model ZF6 Coulter Counter. Cells were split in ratios of 1:2 or 1:4. Population doublings (PDs) were calculated from the ratio of the initial number of cells plated to the yield of cells after a period of time. This provides an accurate measure of cell growth, with the split ratios 1:2 and 1:4 corresponding to one and two passages respectively, which are broadly equivalent to population doublings. The media was changed every 5 days or when cells became confluent.
MRC-5 cells were used to observe the toxicity of a series of derivatives of carnosine on cell growth. Cell cultures were grown in DMEM media with 10% fetal calf serum and supplemented with the following carnosine analogues: carnosine ethyl ester, carnosine iso-propyl ester, carnosine n-butyl ester, carnosine n-hexyl ester, N-propyl carnosine, N-hexanoyl carnosine, N-trimethyl acetyl carnosine, N-acetyl carnosine methyl ester, N-acetyl carnosine ethyl ester and N-acetyl carnosine, […] Cells were also grown in DMEM supplemented with carnosine at 20 mM. […] Even at lower concentrations cell morphology was that of cells that have reached senescence i.e. broad flat cells with long process reaching out to other cells. Cell numbers were less than in the control flasks. […] As shown in FIG. 1 Acetyl-carnosine achieved a lifespan 5 PDs greater than the control and 6.7 PDs greater than carnosine over a 43 day period. […] In the early phase of the experiment growth rates were markedly greater than with the other compounds (FIG. 1).

MRC-5 cells [2] = test: Lifespan (population doublings) of MRC-5 cells in culture; format: cell-based, human
Description: Cultures were split in a 1:4 ratio when flasks were approximately 70-80% confluent.
as §1
MRC-5 cells were used to observe the toxicity of a series of derivatives of carnosine on cell growth. Cell cultures were grown in DMEM media with 10% fetal calf serum and supplemented with the following carnosine analogues: carnosine ethyl ester, carnosine iso-propyl ester, carnosine n-butyl ester, carnosine n-hexyl ester, N-propyl carnosine, N-hexanoyl carnosine, N-trimethyl acetyl carnosine, N-acetyl carnosine methyl ester, N-acetyl carnosine ethyl ester and N-acetyl carnosine, at concentrations ranging between 1 mM to 20 mM. Cells were also grown in DMEM supplemented with carnosine at 20 mM. […] Even at lower concentrations cell morphology was that of cells that have reached senescence i.e. broad flat cells with long process reaching out to other cells. Cell numbers were less than in the control flasks. […] As shown in FIG. 1 Acetyl-carnosine achieved a lifespan 5 PDs greater than the control and 6.7 PDs greater than carnosine over a 43 day period. […] In the early phase of the experiment growth rates were markedly greater than with the other compounds (FIG. 1).
In fact all populations of MRC-5 cells grown in DMEM supplemented with acetyl-carnosine preserved a younger phenotype for much longer than cells grown in DMEM supplemented with carnosine or its analogues.
Under control conditions the range was 57.3-64.5 PDs (n=5). With the addition of carnosine (20mM) to the medium the range was 61.8-63.7 PDs (n=5) with an average increase of 1.4 PDs which represents a 3 fold increase in cell number. However, when acetyl-carnosine (5 mM) was added to the medium, the range was 62.3-70.3 PDs (n=5) with an average increase of 5 PDs compared with the controls. This represents a 32 fold increase in cell number.

senescent MRC-5 cells = test: Rejuvenation of senescent MRC-5 cells (morphology); format: cell-based, human; details: media supplemented with the compound, FIG. 4
Description: as §1
It was shown above that acetyl-carnosine markedly delayed the onset of senescence by increasing the lifespan of MRC-5 cells in culture. This was confirmed by rejuvenation experiments (FIG. 4). The morphology of cells grown in media supplemented with acetyl-carnosine was distinct from the controls. […]

non-enzymic glycation = test: Anti-glycation activity; format: biochemical
human blood peptidases = test: Stability in human blood serum / attack by human blood peptidases; format: in vitro ADME

Resistance to attack by human blood peptidases (human blood peptidases): almost completely resistant
Stability in human blood serum (human blood peptidases; human blood serum): quite stable
SMILES: CC(=O)NCCC(=O)N[C@@H](Cc1cnc[nH]1)C(=O)O [N-acetyl carnosine]
Effect on cell growth (score) (MRC-5 cells [1]; 0.5 mM): 7
Effect on cell growth (score) (MRC-5 cells [1]; 1 mM): 8
Effect on cell growth (score) (MRC-5 cells [1]; 2 mM): 9
Effect on cell growth (score) (MRC-5 cells [1]; 5 mM): 10
Effect on cell growth (score) (MRC-5 cells [1]; 10 mM): 9
Effect on cell growth (score) (MRC-5 cells [1]; 20 mM): 8
Range of lifespans of populations of MRC-5 cells (MRC-5 cells [2]; 5 mM in medium, n=5): 62.3-70.3 PDs
Lifespan greater than carnosine (MRC-5 cells [2]; 5 mM vs carnosine 20 mM, passage 55 cells, over a 43 day period): 6.7 PDs
Lifespan of MRC-5 cells in culture, Population Doublings (PD) (MRC-5 cells [2]; 5 mM, commenced at passage 55): 15.2 PD
Average increase in lifespan compared with controls (MRC-5 cells [2]; 5 mM, n=5): 5 PDs
Lifespan greater than the control (MRC-5 cells [2]; 5 mM, passage 55 cells, over a 43 day period): 5 PDs
Increase in cell number (MRC-5 cells [2]; 5 mM, worked out from the PD increase): 32 fold
Lifespan of MRC-5 cells compared with carnosine (FIG. 2) (MRC-5 cells [2]; acetyl-carnosine 5 mM vs carnosine 20 mM, commenced at passage 32): markedly increased the lifespan
Increase in cell mass (MRC-5 cells [2]; cells exposed to supplemented media): 32 fold
Morphology of cells in rejuvenation experiment (senescent MRC-5 cells): phenotype typical of younger cells
Effectiveness as an antiglycation agent (non-enzymic glycation): ineffective
